How the values were obtained:
[1] = test system: planktonic cells of G. vaginalis; experiment: Checkerboard assay, planktonic cells; format: cell-based, Gardnerella vaginalis; settings: for MIC of CAm in combination with metronidazole: 24 h; for MIC: read-out: MIC when used alone
Method: To evaluate the potential effectiveness of the antimicrobial combinations on planktonic and biofilm cells, a checkerboard assay was performed following Algburi et al. (Algburi et al., 2015. Path Dis 73(5)) with minor modifications. For planktonic cells, the overnight grown G. vaginalis was diluted to approximately 10^6 CFU/ml. Each antimicrobial agent was diluted twofold with sBHI broth into two separate 96-well non-tissue culture microplates. From each dilution of antimicrobial B, 50 μl was added horizontally over 50 μl of antimicrobial A. Then, 100 μl of bacterial suspension (10^6 CFU/ml) was separately added to the predetermined concentration of antimicrobial combinations. The MIC of each combination was determined after 24 h of incubation.
(§1) Isobolograms were used to compare the MIC and MBC-B values of each antimicrobial alone with its MIC and MBC-B values in combination with other antimicrobials. The point on the axis (X) refers to MIC or MBC-B values of the first antimicrobial with the coordinates (0, x), and the point on the axis (Y) represents the MIC or MBC-B values of the second antimicrobial with the coordinates (y, 0) when they used alone. The two MIC or MBCs-B values are connected by a dashed line (Turovskiy Y, Chikindas M L. 2011 Probiotics Antimicrob Proteins 3:144-149). The MICs or MBCs-B of each antimicrobial combination are plotted as dots on the graph. Results are expressed according to the locations of these dots from the line that connects MICs or MBCs-B of the first and second antimicrobials. When MICs or MBCs-B values are located under the line, the two combining antimicrobials are synergized, but antagonized against the tested microorganism when these dots of interaction are above. An additive effect is observed when these dots are located on the line.

[2] = test system: biofilms of G. vaginalis; experiment: Checkerboard assay, biofilm cells; format: cell-based, Gardnerella vaginalis; settings: for MBC-B of CAm in combination with metronidazole: 24 h
Method: For biofilm formation, the overnight culture of G. vaginalis was diluted to approximately 10^7 CFU/ml and 200 μl was transferred into a 96-well tissue culture microplate and incubated anaerobically at 37° C. for 24-36 h. Following biofilm formation and removal of non-adherent cells by washing the biofilm twice with BHIG, each antimicrobial was diluted twofold separately with BHIG broth into two 96-white deep-well microplates. From each dilution of antimicrobial B, 125 μL was added horizontally over 125 μL of antimicrobial A (see FIG. 1 of Algburi et al., 2015. Path Dis 73(5)). From each combination, 200 μL samples were added to the biofilm in sequence, and the microplate was incubated for 24 h at 37° C. under anaerobic conditions. The spot plate method was utilized for counting the number of CFU/ml and evaluating the bactericidal activity (MBC-B) of each antimicrobial combination against biofilm-associated G. vaginalis. Isobolograms were used to analyze the nature of antimicrobial interaction, which is classified as synergistic, antagonistic or additive activity against the planktonic and biofilm cells.
as §1

[3] = test system: G. vaginalis pre-formed biofilm; experiment: Minimum biofilm bactericidal concentration (MBC-B); format: cell-based, Gardnerella vaginalis; settings: 24 h, ≥3 log reduction
Method: (§2) This assay was performed according to Algburi et al. (Algburi et al., 2015. Path Dis 73(5)) with minor modifications: the overnight-grown G. vaginalis was diluted to approximately 10^7 CFU/ml. For the biofilm formation assay, aliquots of 200 μl were added into a 96-well tissue culture microplate, sealed by amplification tape (Nalge Nunc International, Rochester, N.Y., USA) and incubated for 24-36 h at 37° C. After incubation, the planktonic cells were removed by gently washing the biofilm twice with 200 μl of fresh broth. The biofilm was then treated with 200 μl of a predetermined concentration of the tested compound. The microplate was incubated for 24 h at 37° C. under anaerobic conditions. After incubation, the antimicrobials (supernatant) were discarded and the biofilm was washed twice with fresh BHIG broth. The biofilm was then disrupted by vigorous pipetting, in order to determine the number of biofilm-associated cells using the spot plate method.

[4] = test system: Human foreskin fibroblast (HFF) cells; format: cell-based; settings: for IC50: Table 2 of Example 1, cytotoxicity IC50 of CAms
Method: HFFs were cultured in DMEM supplemented with 10% fetal bovine serum, 1% penicillin/streptomycin and plated at a concentration of 10,000 cells/well in 96-well plate. Plates were incubated at 37° C. and 5% CO2 for 24 h to allow cell attachment prior to use.
CAMs were tested for cytotoxicity against HFFs using a tetrazolium-based colorimetric assay (MTT). CAMs were first dissolved in ddH2O and then diluted in cell medium (DMEM supplemented with 1% penicillin/streptomycin) to reach concentrations of 15.6, 3.9, and 0.95 μg/mL. 100 μL cell media containing CAMs were then added to allocated wells in a 96-well plate. Cells treated with only 1% Triton X-100 and cell medium were used as positive and negative controls, respectively. After 24 h incubation, the medium was removed and replaced with fresh medium. 20 μL of MTT reagent (12 mM in PBS) was then added to each well and further incubated for 4 h at 37° C. Formazan crystals were subsequently dissolved in 100 μL acidified SDS solution at 37° C. for 4 h. […] The following is used to calculate the percent of cell viability of HFFs: […]

[5] = test system: L. gasseri biofilm; experiment: Minimum biofilm bactericidal concentration (MBC-B); format: cell-based, Lactobacillus gasseri; settings: pre-formed biofilm, ≥3 log reduction
Method: (§3) G. vaginalis ATCC 14019 strain was grown overnight in Brain Heart Infusion broth (Difco, Sparks, Md.) supplemented with 3% horse serum (sBHI) (JRH Biosciences, KS), while BHI supplemented with 1% glucose (BHIG) was used for biofilm formation assays. Each experiment using G. vaginalis was performed anaerobically (10% hydrogen, 5% carbon dioxide, and 85% nitrogen) within anaerobic glove boxes (Coy Laboratory Products, Inc., Grass Lake, Mich., USA). Three species of vaginal Lactobacillus were used in this study to evaluate the possible harmful effects of CAms on beneficial bacteria: Lactobacillus plantarum ATCC 39268, Lactobacillus rhamnosus 160 (provided by Dr. Aroutcheva, Rush University Medical Center) and Lactobacillus gasseri ATCC 33323; all were grown for 18-24 h in DeMan, Rogosa and Sharpe broth (MRS Difco B D, Franklin Lakes, N.J., USA) under aerobic conditions at 37° C. For lactobacilli biofilm formation, MRS broth supplemented with 1% glucose and 2% sucrose (Fisher Scientific, Waltham, Mass., USA) was utilized.
as §2

[6] = test system: L. rhamnosus biofilm; experiment: Minimum biofilm bactericidal concentration (MBC-B); format: cell-based, Lactobacillus rhamnosus; settings: pre-formed biofilm, ≥3 log reduction
Method: as §3, §2

[7] = test system: L. plantarum biofilm; experiment: Minimum biofilm bactericidal concentration (MBC-B); format: cell-based, Lactobacillus plantarum; settings: pre-formed biofilm, ≥3 log reduction
Method: as §3, §2

SMILES | MIC of CAm in combination with metronidazole [1] | MIC [1] | MBC-B of CAm when used alone [2] | MBC-B of CAm in combination with metronidazole [2] | MBC-B G. vaginalis [3] | cytotoxicity to human fibroblasts (MTT cell viability) [4] | IC50 [4] | MBC-B L. gasseri [5] | MBC-B L. rhamnosus [6] | MBC-B L. plantarum [7]
CCCCCCCCCCOC(C(=O)NCCN)C(OCCCCCCCCCC)C(=O)NCCN.Cl.Cl (centres unmarked) [5b] | 0.2 µM | 1.1 µM | 340 µM | 25.7 µM | 425.6 µM | did not produce pronounced cytotoxicity | 5.6 µg/mL | >850 µM | >850 µM | >850 µM
CCCCCCCC(=O)OC(C(=O)NCCN)C(OC(=O)CCCCCCC)C(=O)NCCN.Cl.Cl (centres unmarked) [8a] | 3.4 µM | 24.4 µM | 92.7 µM | 26.9 µM | 117.6 µM |  | 55.6 µg/mL | >890 µM | >890 µM | >890 µM
CCCCCCCCCC(=O)OC(C(=O)NCCN)C(OC(=O)CCCCCCCCC)C(=O)NCCN.Cl.Cl (centres unmarked) [8b] | 0.2 µM | 10 µM | 67.7 µM | 6.3 µM | 425.6 µM | did not produce pronounced cytotoxicity | 13.9 µg/mL | 810 µM | >810 µM | >810 µM

— US10759740B2, “Antibacterial agents” (Rutgers, The State University of New Jersey, priority 2016, dated 2020)
